tested on: A549 NSCLC cells; assay: Cellular cytotoxicity assay (Alamar Blue), A549; format: cell-based; conditions: Homo sapiens, 72 h, upper end given as ≧100, read-out: IC50 (μM), cytotoxicity towards A549 NSCLC cells
Summary of the method: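 Cells were dosed 24 h after seeding with semi-log compound dilutions in quadruplicate, then incubated 72 h at 37 °C, 5% CO2. Viability read by Resazurin reduction (4 h, fluorescence 544/590 nm) relative to untreated 0.5% DMSO controls; IC50 by non-linear regression.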

Compound	IC50 [µM]
CC(C)c1ccc(N)c(NC(=O)c2nc3c(s2)CN(C(=C[N+](=O)[O-])Nc2ccc(N(C)C)cc2)CC3)c1 [Example 147, N-(2-amino-5-isopropylphenyl)-5-[1-{[4-(dimethylamino)phenyl]amino}-2-nitrovinyl]-4,5,6,7-tetrahydro[1,3]thiazolo[5,4-c]pyridine-2-carboxamide]	≥ 0.2
CC(C)c1ccc(NC(=C[N+](=O)[O-])N2CCc3nc(C(=O)Nc4cc(C(C)C)ccc4N)sc3C2)cc1 [Example 148, N-(2-amino-5-isopropylphenyl)-5-{1-[(4-isopropylphenyl)amino]-2-nitrovinyl}-4,5,6,7-tetrahydro[1,3]thiazolo[5,4-c]pyridine-2-carboxamide]	≥ 0.2
COc1ccc(N)c(NC(=O)c2nc3c(s2)CN(C(=C[N+](=O)[O-])Nc2ccc(F)cc2)CC3)c1 [Example 149, N-(2-amino-5-methoxyphenyl)-5-{1-[(4-fluorophenyl)amino]-2-nitrovinyl}-4,5,6,7-tetrahydro[1,3]thiazolo[5,4-c]pyridine-2-carboxamide]	≥ 0.2
Nc1ccccc1NC(=O)c1nc2c(s1)CN(S(=O)(=O)Cc1ccccc1)CC2 [Example 151, N-(2-aminophenyl)-5-(benzylsulfonyl)-4,5,6,7-tetrahydro[1,3]thiazolo[5,4-c]pyridine-2-carboxamide]	≥ 0.2
CC(=O)Nc1ccc(S(=O)(=O)N2CCc3nc(C(=O)Nc4ccccc4N)sc3C2)cc1 [Example 155, 5-[(4-acetamidophenyl)sulfonyl]-N-(2-aminophenyl)-4,5,6,7-tetrahydro[1,3]thiazolo[5,4-c]pyridine-2-carboxamide]	≥ 0.2
Nc1ccccc1NC(=O)c1nc2c(s1)CN(S(=O)(=O)c1ccc3ccccc3c1)CC2 [Example 156, N-(2-aminophenyl)-5-(2-naphthylsulfonyl)-4,5,6,7-tetrahydro[1,3]thiazolo[5,4-c]pyridine-2-carboxamide]	≥ 0.2
Nc1ccccc1NC(=O)c1nc2c(s1)CN(S(=O)(=O)c1cccs1)CC2 [Example 157, N-(2-aminophenyl)-5-(2-thienylsulfonyl)-4,5,6,7-tetrahydro[1,3]thiazolo[5,4-c]pyridine-2-carboxamide]	≥ 0.2
COC(=O)c1sccc1S(=O)(=O)N1CCc2nc(C(=O)Nc3ccccc3N)sc2C1 [Example 158, Methyl 3-({2-[(2-aminophenyl)carbamoyl]-6,7-dihydro[1,3]thiazolo[5,4-c]pyridin-5(4H)-yl}sulfonyl)thiophene-2-carboxylate]	≥ 0.2
CC(=O)Nc1nc(C)c(S(=O)(=O)N2CCc3nc(C(=O)Nc4ccccc4N)sc3C2)s1 [Example 159, 5-[(2-acetamido-4-methyl-1,3-thiazol-5-yl)sulfonyl]-N-(2-aminophenyl)-4,5,6,7-tetrahydro[1,3]thiazolo[5,4-c]pyridine-2-carboxamide]	≥ 0.2
Nc1ccccc1NC(=O)c1nc2c(s1)CN(S(=O)(=O)c1ccc(C(F)(F)F)cc1)CC2 [Example 161, N-(2-aminophenyl)-5-{[4-(trifluoromethyl)phenyl}sulfonyl]-4,5,6,7-tetrahydro[1,3]thiazolo[5,4-c]pyridine-2-carboxamide]	≥ 0.2
Nc1ccccc1NC(=O)c1nc2c(s1)CN(S(=O)(=O)c1cccc(C(F)(F)F)c1)CC2 [Example 162, N-(2-aminophenyl)-5-{[3-(trifluoromethyl)phenyl]sulfonyl}-4,5,6,7-tetrahydro[1,3]thiazolo[5,4-c]pyridine-2-carboxamide]	≥ 0.2
Nc1ccccc1NC(=O)c1nc2c(s1)CN(S(=O)(=O)c1cccc(F)c1)CC2 [Example 163, N-(2-aminophenyl)-5-[(3-fluorophenyl)sulfonyl]-4,5,6,7-tetrahydro[1,3]-thiazolo[5,4-c]pyridine-2-carboxamide]	≥ 0.2
CC(C)S(=O)(=O)N1CCc2nc(C(=O)Nc3ccccc3N)sc2C1 [Example 164, N-(2-aminophenyl)-5-(isopropylsulfonyl)-4,5,6,7-tetrahydro[1,3]thiazolo[5,4-c]pyridine-2-carboxamide]	≥ 0.2
Nc1ccccc1NC(=O)c1nc2c(s1)CN(S(=O)(=O)c1cccc(OC(F)F)c1)CC2 [Example 165, N-(2-aminophenyl)-5-{[3-(difluoromethoxy)phenyl]sulfonyl}-4,5,6,7-tetrahydro[1,3]thiazolo[5,4-c]pyridine-2-carboxamide]	≥ 0.2
Nc1ccccc1NC(=O)c1nc2c(s1)CN(S(=O)(=O)c1ccc(OC(F)F)cc1)CC2 [Example 166, N-(2-aminophenyl)-5-{[4-(difluoromethoxy)phenyl]sulfonyl}-4,5,6,7-tetrahydro[1,3]thiazolo[5,4-c]pyridine-2-carboxamide]	≥ 0.2
Nc1ccccc1NC(=O)c1nc2c(s1)CN(S(=O)(=O)c1cccc(OC(F)(F)F)c1)CC2 [Example 167, N-(2-aminophenyl)-5-{[3-(trifluoromethoxy)phenyl]sulfonyl}-4,5,6,7-tetrahydro[1,3]thiazolo[5,4-c]pyridine-2-carboxamide]	≥ 0.2
Nc1ccccc1NC(=O)c1nc2c(s1)CN(S(=O)(=O)c1ccc(OC(F)(F)F)cc1)CC2 [Example 168, N-(2-aminophenyl)-5-{[4-(trifluoromethoxy)phenyl]sulfonyl}-4,5,6,7-tetrahydro[1,3]thiazolo[5,4-c]pyridine-2-carboxamide]	≥ 0.2

Compound	IC50 [µM]
COc1ccc(N)c(NC(=O)c2nc3c(s2)CN(S(=O)(=O)c2ccc(C)cc2)CC3)c1 [Example 169, N-(2-amino-5-methoxyphenyl)-5-[(4-methylphenyl)sulfonyl]-4,5,6,7-tetrahydro[1,3]thiazolo[5,4-c]pyridine-2-carboxamide]	≥ 0.2
Cc1ccc(S(=O)(=O)N2CCc3nc(C(=O)Nc4cc(C(C)C)ccc4N)sc3C2)cc1 [Example 170, N-(2-amino-5-isopropylphenyl)-5-[(4-methylphenyl)sulfonyl]-4,5,6,7-tetrahydro[1,3]thiazolo[5,4-c]pyridine-2-carboxamide]	≥ 0.2
COc1ccc(S(=O)(=O)N2CCc3nc(C(=O)Nc4cc(OC)ccc4N)sc3C2)cc1 [Example 171, N-(2-amino-5-methoxyphenyl)-5-[(4-methoxyphenyl)sulfonyl]-4,5,6,7-tetrahydro[1,3]thiazolo[5,4-c]pyridine-2-carboxamide]	≥ 0.2
Nc1ccccc1NC(=O)c1nc2c(s1)CN(C(=O)COc1ccccc1)CC2 [Example 172, N-(2-aminophenyl)-5-(phenoxyacetyl)-4,5,6,7-tetrahydro[1,3]thiazolo[5,4-c]pyridine-2-carboxamide]	≥ 0.2
Nc1ccccc1NC(=O)c1nc2c(s1)CN(C(=O)COc1ccc3ccccc3c1)CC2 [Example 175, N-(2-aminophenyl)-5-[(2-naphthyloxy)acetyl]-4,5,6,7-tetrahydro[1,3]thiazolo[5,4-c]pyridine-2-carboxamide]	≥ 0.2
COCC(=O)N1CCc2nc(C(=O)Nc3ccccc3N)sc2C1 [Example 177, N-(2-aminophenyl)-5-(methoxyacetyl)-4,5,6,7-tetrahydro[1,3]thiazolo[5,4-c]pyridine-2-carboxamide]	≥ 0.2
COc1ccc(OCC(=O)N2CCc3nc(C(=O)Nc4cc(C(C)C)ccc4N)sc3C2)cc1 [Example 178, N-(2-amino-5-isopropylphenyl)-5-[(4-methoxyphenoxy)acetyl]-4,5,6,7-tetrahydro[1,3]thiazolo[5,4-c]pyridine-2-carboxamide]	≥ 0.2
COc1cccc(OCC(=O)N2CCc3nc(C(=O)Nc4ccccc4N)sc3C2)c1 [Example 179, N-(2-aminophenyl)-5-[(3-methoxyphenoxy)acetyl]-4,5,6,7-tetrahydro[1,3]-thiazolo[5,4-c]pyridine-2-carboxamide]	≥ 0.2
Nc1ccccc1NC(=O)c1nc2c(s1)CN(C(=O)Oc1ccc(-c3ccccc3)cc1)CC2 [Example 181, Biphenyl-4-yl 2-[(2-aminophenyl)carbamoyl]-6,7-dihydro[1,3]thiazolo[5,4-c]pyridine-5(4H)-carboxylate]	≥ 0.2
CCCOC(=O)c1ccc(OC(=O)N2CCc3nc(C(=O)Nc4ccccc4N)sc3C2)cc1 [Example 184, 4-(propoxycarbonyl)phenyl 2-[(2-aminophenyl)carbamoyl]-6,7-dihydro[1,3]thiazolo[5,4-c]pyridine-5(4H)-carboxylate]	≥ 0.2
Nc1ccccc1NC(=O)c1nc2c(s1)CN(C(=O)Oc1ccc3ccccc3c1)CC2 [Example 185, 2-naphthyl 2-[(2-aminophenyl)carbamoyl]-6,7-dihydro[1,3]thiazolo[5,4-c]-pyridine-5(4H)-carboxylate]	≥ 0.2
CCCCOC(=O)N1CCc2nc(C(=O)Nc3ccccc3N)sc2C1 [Example 187, Butyl 2-[(2-aminophenyl)carbamoyl]-6,7-dihydro[1,3]thiazolo[5,4-c]pyridine-5(4H)-carboxylate]	≥ 0.2
Nc1ccccc1NC(=O)c1nc2c(s1)CN(C(=O)OCc1ccccc1)CC2 [Example 188, Benzyl 2-[(2-aminophenyl)carbamoyl]-6,7-dihydro[1,3]thiazolo[5,4-c]pyridine-5(4H)-carboxylate]	≥ 0.2
Nc1ccccc1NC(=O)c1nc2c(s1)CN(c1ccc(C(F)(F)F)cn1)CC2 [Example 195, N-(2-aminophenyl)-5-[5-(trifluoromethyl)pyridin-2-yl]-4,5,6,7-tetrahydro[1,3]thiazolo[5,4-c]pyridine-2-carboxamide]	≥ 0.2
Nc1ccccc1NC(=O)c1nc2c(s1)CN(c1ccc(NC(=O)NCc3ccccc3)cc1)CC2 [Example 198, N-(2-aminophenyl)-5-{4-[(benzylcarbamoyl)amino]phenyl}-4,5,6,7-tetrahydro[1,3]thiazolo[5,4-c]pyridine-2-carboxamide]	≥ 0.2
Cc1ccc(S(=O)(=O)Nc2ccc(N3CCc4nc(C(=O)Nc5ccccc5N)sc4C3)cc2)cc1 [Example 199, N-(2-aminophenyl)-5-(4-{[(4-methylphenyl)sulfonyl]amino}phenyl)-4,5,6,7-tetrahydro[1,3]thiazolo[5,4-c]pyridine-2-carboxamide]	≥ 0.2

— patent US8440830B2, “Tetrahydro-fused pyridines as histone deacetylase inhibitors” (4SC AG, priority 2007, dated 2013)
